# Reference: paper PMC10222203 (Pharmaceutics, 2023)
# Where “and” joins values, the source holds several entries; their conditions need not be identical. Equal values may be shown once. Read-outs that look alike come from different tables or passages of the source.
# How the values were obtained:
# brain slices = tested on: brain slices
# Method: (§1) The brain slice assay was performed according to previously published protocols. Three animals per study group were investigated. All glassware used in the brain slice experiments was silanized using dimethyldichlorosilane in heptane to avoid non-specific binding of the cyclic peptides to glass. In short, the silanization solution was added to the glassware and left there for one hour, after which the glassware was rinsed with methanol and then placed in a heating cabinet to cure. Slicing was performed with a Leica VT1200 microtome slicer (Leica Microsystems, Wetzlar, Germany). […] At the end of the incubation, two 200 µL samples of aECF were taken and mixed with blank brain homogenate (1:4, w:v) for assessment of unbound buffer concentration, Cbuffer (nanomoles per mL). Thereafter, the brain slices were individually sampled, carefully dried on filter paper, weighed, and homogenized in aECF (1:9, w:v) to determine the total amount of drug in the slice, Aslice (nanomoles per g brain). The density of brain tissue was assumed to be 1 g/mL. The key assumption of the assay is achievement of equilibrium during 5 h incubation, with Cbuffer being equal and representing unbound brain slice interstitial concentration. Samples of aECF (200 µL) were also taken from the scintillation vial without brain slices at the start and at the end of the incubation to determine the relative recovery and thermostability of the peptides. The unbound volume of distribution in brain, Vu,brain (mL/g brain), was calculated using Equation (3). (3) Vu,brain =Aslice−Vi×Cbuffer/Cbuffer(1−Vi) where Vi is the volume of buffer film that coats the slice and equals to 0.094 mL/g brain [39].
# (§2) To study the potential mechanism of intracellular distribution of the peptides, several exploratory experiments were performed (Figure 2a). […] In addition, the role of endocytosis and pH partitioning-driven distribution was investigated. The slices were pre-incubated for 30 min with the blockers before the addition of the peptides. Dynasore was used as an inhibitor of dynamin-dependent endocytosis, which is involved in both clathrin and caveolin vesicle formation (Figure 3a). […] Due to high cytotoxicity, the concentration of […] was chosen based on previous studies.
# (§3) The unbound intracellular-to-extracellular concentration ratio, Kp,uu,cell, was calculated according to Equation (14) by combining the brain slice derived, Vu,brain, with the measurement of brain tissue binding, fu,brain, from the tissue homogenate study. This allows elucidation of whether the uptake into the brain cells is driven mainly by passive processes and intracellular binding and/or partitioning, such as lysosomal trapping, or by active uptake into the cells. (14) Kp,uu,cell=fu,brain×Vu,brain
# [1] = rat, Kp,uu,cell
# Method: as §1, §2, §3
# plasma proteins = conditions: undiluted rat plasma, 1 µM, equilibrium dialysis 6 h 37 °C
# Method: Peptide binding to plasma proteins, brain tissue homogenate, and lung tissue homogenate as well as to neuronal and astrocyte cell culture homogenates was investigated using equilibrium dialysis [47]. Undiluted plasma and brain from three peptide-naïve rats were used in the experiment. The brain homogenate was prepared by homogenizing 1 part brain with 4 parts of phosphate-buffered saline (PBS, pH 7.4). […] Semi-permeable membranes with a molecular weight cut-off of 12–14 kDa were used and placed in an HTD96b apparatus (HTDialysis, Gales Ferry, CT, USA). The undiluted plasma and respective homogenates were spiked with individual peptide to a concentration of 1 µM and were dialyzed against PBS (pH 7.4). Five technical replicates were prepared per biological replicate. The experiment was run for 6 h at 37 °C in a MaxQ4450 shaker (Thermo Fisher Scientific, NinoLab, Sweden) at 200 rpm. […] Aliquots (80 µL) were taken from the buffer and plasma/homogenate sides. To compensate for any differences in matrix during bioanalysis, the plasma and homogenate samples were mixed with equal volumes of blank buffer, and the buffer samples were mixed with an equal volume of relevant blank plasma/homogenate. Spiked plasma and respective homogenate samples were incubated to control for relative recovery and thermal stability of the peptides in respective matrices.
# The unbound fraction in undiluted plasma was calculated using Equation (5), where Cbuffer is the unbound concentration of peptide in the buffer and Cplasma is the total concentration of peptide in plasma at 6 h. The binding of peptide in various homogenates was assessed in two steps. First, the fraction of unbound peptide in the diluted homogenate, fu,h,D, was calculated using Equation (6), where Chomogenate is the total concentration of peptide in respective homogenate at 6 h. Second, the correction for the dilution was implemented as described in Equation (7), where D is the dilution factor used in the preparation [47]. D was 5 for brain and lung homogenates and on average 35.3 for the cell culture studies, as determined based on the total protein content and the total volume of lysate. (5) fu,plasma=Cbuffer/Cplasma (6) fu,h,D=Cbuffer/Chomogenate (7) fu,tissue/cell=1/D/((1/fu,h,D )−1)+1/D
# in vitro [2] = assay: in vitro
# Method: The in vitro BBB model, consisting of CD34^+ endothelial cells (ECs) derived from hematopoietic stem cells in co-culture with bovine brain pericytes, was established as described by Cecchelli et al.. Written and informed consent was obtained for the collection of human umbilical cord blood, in compliance with French legislation. […] All experiments were carried out in line with the authorized protocol.
# These isolated CD34+ cells were cultured in EGM-2, supplemented with 20% (v:v) FBS and 50 ng/mL vascular endothelial growth factor on 1% (w:v) gelatine-coated 24-well plates (2 × 10^5 cells/well). After 15–20 days, ECs are seen in the culture dish. For each experiment, the cells were expanded in 1% (w:v) gelatine-coated T75 flasks (BD Biosciences, Le Pont-de-Claix, France) in EGM-2. Bovine brain pericytes were isolated and characterized as described by Vandenhaute et al.. Sub-clones were cultured in Dulbecco’s Modified Eagle’s Medium supplemented with 20% (v:v) FBS, 2 mM L-glutamine, 50 µg/mL gentamycin, and 1 ng/mL basic fibroblast growth factor. At confluency, 5 × 10^4 cells were seeded in ECM-5 with 5% (v:v) FBS, 50 µg/mL gentamycin, and 0.5% endothelial cell growth factor in gelatine-coated 12-well plates (Costar, Corning Inc., New York, NY, USA). CD34^+-derived ECs were seeded at 8 × 10^4 cells per Matrigel-coated (BD Biosciences) insert (3401, Corning Inc., NY, USA) and put in co-culture with the bovine brain pericytes, with the pericytes at the bottom of the well, for 6 days to achieve brain-like endothelial cell (BLEC) characteristics (Figure 4b).
# At the beginning of the permeability experiments, inserts with BLEC monolayers were transferred to new abluminal (receiver) compartments previously filled with 1.5 mL of RH buffer, and 500 µL of the compounds dissolved in RH buffer, with the addition of the paracellular marker sodium fluorescein (NaFlu), were added to the luminal (donor) compartment. After 3 h of incubation at 37 °C, with a shaking velocity of 60 rpm, aliquots were taken from the donor and receiver compartment. The BLEC monolayers were washed twice with cold RH buffer and lysed with RLT Lysis buffer. The samples were kept at −20 °C pending analysis in low-binding tubes.
# An increase in the permeability to NaFlu in the presence of the peptide can indicate an increase in paracellular leakage and consequent loss of barrier integrity. To evaluate the ability of test compounds to cross Matrigel-coated filters without cells and to control for the adsorption to plastics and/or Matrigel, the NaFlu and peptide’s permeability over inserts without cells were also assessed. Mass balance (M.B%) was calculated from the amount of compound recovered in both compartments at the end of the experiment divided by the total amount added to the donor compartment at the start of the experiment.
# Samples from both compartments as well as the lysed endothelial cells were analysed for fluorescence using a Synergy H1 (Biotek) set to quantify NaFlu (wavelengths Excitation 490 nm and Emission 525 nm) and with UPLC-MS/MS to assess the permeability and cellular uptake of the peptides. All experiments were performed in triplicate (n = 3 independent experiments per concentration and cCPPs).
# Papp is the apparent permeability, J is the rate of appearance of the compound in the receiver compartment (amount/sec), and C0 is the concentration in the donor compartment at the start of the experiment (amount/mL).
# in vitro [3] = assay: in vitro; remark: listed apart in the source
# [4] = Simulation of unbound brain exposure (two-compartment model, Berkeley Madonna); set-up: species or system rat; conditions: parameter used in simulation; for clearance: read-out: Systemic clearance, CL (converted); for Vd: rat
# Method: The simulation was performed at given initial total plasma concentration to be equal to steady-state concentrations obtained in the neuroPK study (Table 2), utilizing the parameters listed in Supplementary Material Table S3. A two-compartment model consisting of blood and brain compartments with a focus on unbound concentrations was characterized (Supplementary Material Figure S1 describes the structure of the model and the codes).
# [5] = rat brain slices, 200 nM, 5 h, 37 °C
# [6] = Unbound intracellular-to-extracellular (interstitial) concentration ratio, brain slices 37 °C, fu,brain × Vu,brain
# [7] = brain tissue homogenate, equilibrium dialysis
# [8] = rat weight 0.3 kg, read-out: Apparent volume of distribution, Vd
# [9] = read-out: Apparent volume of distribution unbound, Vd,u
smiles,measurement,setting,value
CC(C)C[C@@H]1NC(=O)CNC(=O)[C@H](CC(N)=O)NC(=O)[C@H](CCCNC(=N)N)NC(=O)[C@H]([C@@H](C)O)NC(=O)[C@@H]2CSSC[C@@H]3NC(=O)[C@H]([C@@H](C)O)NC(=O)CNC(=O)CNC(=O)[C@H](C(C)C)NC(=O)[C@@H]4CSSC[C@H](NC(=O)[C@H]([C@@H](C)O)NC(=O)[C@H](CSSC[C@H](NC(=O)[C@H](C(C)C)NC(=O)[C@@H]5CCCN5C1=O)C(=O)NCC(=O)N[C@@H](CCC(=O)O)C(=O)N[C@@H]([C@@H](C)O)C(=O)N4)NC(=O)CNC(=O)[C@@H]1CCCN1C(=O)[C@H]([C@@H](C)O)NC(=O)[C@H](CC(N)=O)NC3=O)C(=O)N[C@@H](CO)C(=O)N[C@@H](Cc1c[nH]c3ccccc13)C(=O)N1CCC[C@H]1C(=O)N[C@@H](C(C)C)C(=O)N2 [Kalata B1],"Reduction in Kp,uu,cell from 37 °C to 4 °C",brain slices; brain slices,138 fold
same,"Intra-brain distribution (Vu,brain) relative to SFTI-1",brain slices; brain slices 37 °C,ca. 350 fold
same,"Unbound intracellular-to-extracellular (interstitial) concentration ratio, Kp,uu,cell","brain slices; brain slices 37 °C, fu,brain × Vu,brain",9.73 ± 3.35
same,"Unbound volume of distribution in brain, Vu,brain",brain slices; brain slices incubated at 4 °C,1.12 mL/g brain
same,"Reduction in Vu,brain after pre-incubation with dynasore","brain slices; brain slices, dynasore 50 µM, 30 min pre-incubation",23%
same,"Unbound volume of distribution in brain, Vu,brain",brain slices; [5],152 ± 29.9 mL/g brain
same,"Unbound volume of distribution in brain, Vu,brain","brain slices; rat brain slices, 200 nM, 5 h, 37 °C, listed as kalata B1",152 mL/g brain
same,Kp uu,[1]; brain slices incubated at 4 °C,0.0721
same,Kp uu,[1]; [6],9.7
same,"Fraction unbound in plasma, fu,plasma",plasma proteins,0.299 ± 0.095
same,Papp,"in vitro [2]; Endothelial permeability, Pe (average across concentrations), BLEC monolayer, 3 h, 37 °C",3.83 ×10⁻⁶ cm/s
same,Papp,"in vitro [2]; Papp, human in vitro BBB model, value used in simulation (Table S3)",3.19 ×10⁻⁶ cm/s
same,Bound to brain tissue constituents,in vitro [3]; [7],93%
same,fraction unbound,"in vitro [3]; rat, brain homogenate",0.0639 ± 0.0072
same,clearance,[4]; rat weight 0.3 kg,0.48 mL/min
same,Vd,[4]; [8],0.0966 L
same,Vd,[4]; [9],0.029 L
"CC[C@H](C)[C@@H]1NC(=O)[C@@H]2CCCN2C(=O)[C@@H]2CCCN2C(=O)[C@H]([C@@H](C)CC)NC(=O)[C@H](CO)NC(=O)[C@H](CCCCN)NC(=O)[C@H]([C@@H](C)O)NC(=O)[C@@H]2CSSC[C@H](NC1=O)C(=O)N[C@@H](Cc1ccccc1)C(=O)N1CCC[C@H]1C(=O)N[C@@H](CC(=O)O)C(=O)NCC(=O)N[C@@H](CCCNC(=N)N)C(=O)N2 [SFTI-1, sunflower trypsin inhibitor-1]","Unbound volume of distribution in brain, Vu,brain",brain slices; brain slices incubated at 4 °C,0.56 mL/g brain
same,"Unbound volume of distribution in brain, Vu,brain",brain slices; [5],0.436 mL/g brain and 0.436 ± 0.064 mL/g brain
same,Kp uu,"[1]; mean values across experimental conditions, brain slices, 4 °C, inhibition of endocytosis, or dissipation of the pH gradient",0.3 to 0.47
same,Kp uu,[1]; [6],0.415 ± 0.079
same,"Fraction unbound in plasma, fu,plasma",plasma proteins,0.936 ± 0.038
same,Papp A→B at 3 h,"in vitro [2]; human, pH 7.4",2.62 ×10⁻⁶ cm/s
same,Papp at 3 h,"in vitro [2]; human, pH 7.4, Endothelial permeability, Pe (average across concentrations), BLEC monolayer, 3 h, 37 °C",3.8 ×10⁻⁶ cm/s
same,Brain tissue binding (in words),in vitro [3]; [7],almost no brain tissue-binding capacity
same,"fraction unbound at 6 h, 1 µM","in vitro [3]; rat, brain homogenate (1 part brain with 4 parts PBS), pH 7.4",0.951 ± 0.115
same,CLin,[4],0.0017 L/h
same,CLout,[4],0.01317 L/h
same,"Systemic clearance unbound, CLu",[4],0.0307 L/h
same,"Total steady-state plasma concentration, Cplasma,ss",[4],0.6052 mg/L
same,"Unbound steady-state plasma concentration, Cplasma,u,ss",[4],0.5665 mg/L
same,clearance,[4]; rat weight 0.3 kg,0.545 mL/min
same,Vd,[4]; [8],0.0573 L
same,Vd,[4]; [9],0.054 L
